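Growth conditions: 96-well plates. Treatment: test compound, 48 hours, 5 concentrations. Analysis: linear interpolation between bracketing concentrations; unreached endpoints set to highest concentration. The concentration for 50% growth inhibition is given as GI50.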 The source made the active and inactive calls. No stated cut-off is given here; in the data, active = GI50 up to about 1.1 µM and inactive = higher.

Some test systems named below: ACHN; EKVX; HCT-15; HL-60; HT-29; KM12; LOX IMVI; LXFL 529; M14; NCI-H460; RXF 393; SK-MEL-2; SNB-75; SR; UACC-257; HCC 2998; OVCAR-3; OVCAR-5; CAKI-1.
Common to all, as to test: DTP human tumour cell line panel, 48 h

Broadly, the GI50 is the concentration that inhibits growth by half. As to `O=C(CSc1nnc(-c2ccc(/N=C\c3ccc(Cl)cc3)cc2)o1)Nc1cccc([N+](=O)[O-])c1`, the GI50 in the assay on ACHN was > 100 µM (inactive); in the assay on EKVX, > 100 µM (inactive); in the assay with HCT-15, above 100 µM; with HL-60, > 100 µM (inactive); in the assay on HT-29, > 100 µM (inactive); in the assay on KM12, > 100 µM (inactive). Further, the GI50 in the assay on LOX IMVI, in the assay on LXFL 529, in the assay with M14, with NCI-H460, in the assay on RXF 393 and in the assay with SK-MEL-2 was > 100 µM (inactive) each time. Besides, the GI50 with SNB-75, with SR and in the assay on UACC-257 was > 100 µM (inactive) each time.

As for `COC(=O)/C(=N\NC(=O)c1ccccc1O)C(C#N)c1ccc(Cl)cc1` (centres undefined), the GI50 in the assay on ACHN is 5.85 µM (inactive); in the assay on EKVX, 15.6 µM (inactive); in the assay with HCC 2998, 30.3 µM (inactive); in the assay with HCT-15, 33 µM; in the assay on HL-60, 24.9 µM (inactive); in the assay on HT-29 it was 74.1 µM (inactive). Moreover, the GI50 was 43.6 µM (inactive) with KM12; 34.3 µM (inactive) in the assay on LXFL 529; 40.6 µM (inactive) with M14; 39 µM (inactive) with NCI-H460; 29.9 µM (inactive) in the assay on OVCAR-3; 34.9 µM (inactive) with OVCAR-5. The GI50 is 2.04 µM (inactive) with RXF 393, 21.7 µM (inactive) in the assay with SK-MEL-2, 37.3 µM (inactive) with SR and 31.5 µM (inactive) in the assay on UACC-257.

For the molecule `Nc1c(C(=O)Nc2ccccc2O)[n+]([O-])c2ccccc2[n+]1[O-]`, the GI50 in the assay with ACHN was 87.5 µM (inactive); in the assay on CAKI-1, > 100 µM (inactive); in the assay on EKVX, > 100 µM (inactive); in the assay with HCT-15 it was 30.5 µM; with HL-60, 25.8 µM (inactive); in the assay on HT-29, > 100 µM (inactive). In addition, the GI50 in the assay with KM12 was 79.3 µM (inactive); with LXFL 529, > 100 µM (inactive); with M14, > 100 µM (inactive); in the assay with NCI-H460, 27 µM (inactive); in the assay with OVCAR-3, 29.9 µM (inactive); with OVCAR-5 it was > 100 µM (inactive). For the same molecule, the GI50 is 40.2 µM (inactive) in the assay with SK-MEL-2, 47.9 µM (inactive) in the assay with SNB-75, 44.3 µM (inactive) in the assay on SR and 18.8 µM (inactive) in the assay on UACC-257.

`Cc1cc(=O)oc2cc(OCc3nc4ccccc4c(=O)[nH]3)ccc12`: the GI50 with ACHN is > 100 µM (inactive); in the assay on CAKI-1, > 100 µM (inactive); with EKVX, > 100 µM (inactive); with HCC 2998 it was > 100 µM (inactive); in the assay on HCT-15 it was above 100 µM; in the assay on HL-60, > 100 µM (inactive). For the same molecule, the GI50 in the assay on HT-29, in the assay with KM12, in the assay with LOX IMVI, with LXFL 529, with M14 and in the assay on NCI-H460 was > 100 µM (inactive) throughout. Moreover, the GI50 in the assay on OVCAR-3, with OVCAR-5, in the assay on RXF 393, in the assay with SK-MEL-2 and in the assay on SNB-75 was > 100 µM (inactive) throughout.

For `CCC12C[N+]3([O-])CCc4c([nH]c5ccccc45)C(C(=O)OC)(c4cc5c(cc4OC)N(C)C4C(O)(C(=O)OC)C(OC(C)=O)C6(CC)C=CCN7CCC54C76)CC(C3)C1O2` (centres undefined), the GI50 was 10.5 µM (inactive) in the assay with ACHN; 5.93 µM (inactive) in the assay with CAKI-1; 0.467 µM (active) in the assay with EKVX; 2.55 µM (inactive) in the assay with HCC 2998; 4.47 µM in the assay on HCT-15; 0.342 µM (active) in the assay on HT-29. Besides, the GI50 is 0.337 µM (active) in the assay with KM12; 1.09 µM (active) with LOX IMVI; 0.656 µM (active) in the assay with LXFL 529; 2.17 µM (inactive) in the assay with M14; 0.424 µM (active) in the assay with NCI-H460; 0.337 µM (active) in the assay on OVCAR-3. Moreover, the GI50 is 3.94 µM (inactive) in the assay on OVCAR-5; 0.693 µM (active) in the assay with RXF 393; 0.234 µM (active) in the assay on SK-MEL-2; 0.242 µM (active) in the assay on SNB-75; 7.01 µM (inactive) with UACC-257.

Turning to `CCc1c(C#N)c(=O)[nH]c(=O)n1CCN1CCN(C(=O)NCCCCCCNC(=O)N2CCN(CCn3c(CC)c(C#N)c(=O)[nH]c3=O)CC2)CC1`, the GI50 in the assay with ACHN was > 100 µM (inactive); with CAKI-1, > 100 µM (inactive); with EKVX it was > 100 µM (inactive); in the assay with HCC 2998 it was > 100 µM (inactive); in the assay with HCT-15, above 100 µM; in the assay on HL-60 it was > 100 µM (inactive). The GI50 in the assay on HT-29, in the assay with LOX IMVI, with LXFL 529, in the assay on M14, with NCI-H460 and in the assay with OVCAR-3 was > 100 µM (inactive) in each case. The GI50 in the assay with SNB-75 is > 10 µM (inactive); with UACC-257, > 100 µM (inactive).

On to `COc1ccccc1-c1cc(=O)c2cc(C)c(C)c(C(=O)O)c2o1`, for which the GI50 with ACHN was > 100 µM (inactive); in the assay on EKVX it was > 100 µM (inactive); with HCC 2998, > 100 µM (inactive); in the assay on HCT-15 it was above 100 µM; with HL-60, > 100 µM (inactive); in the assay on HT-29, > 100 µM (inactive). Moreover, the GI50 with KM12, in the assay on LOX IMVI, in the assay with LXFL 529, with M14, in the assay on NCI-H460 and in the assay with OVCAR-3 was > 100 µM (inactive) in each case. Moreover, the GI50 with OVCAR-5 was > 100 µM (inactive); with SK-MEL-2, > 100 µM (inactive); with SNB-75, 40.2 µM (inactive); in the assay with UACC-257, > 100 µM (inactive).

Take `O=C(CSc1nnc(-c2ccc(/N=C\c3ccc(Cl)cc3)cc2)o1)Nc1ccc([N+](=O)[O-])cc1`: the GI50 was 11.9 µM (inactive) with ACHN; > 100 µM (inactive) with EKVX; 18.4 µM with HCT-15; 26.4 µM (inactive) in the assay on HL-60; 19.5 µM (inactive) in the assay on HT-29; > 10 µM (inactive) in the assay with KM12. The GI50 was 10.6 µM (inactive) in the assay with LOX IMVI; 15.8 µM (inactive) in the assay with LXFL 529; 19.4 µM (inactive) in the assay with M14; 36.4 µM (inactive) with NCI-H460; 19.6 µM (inactive) in the assay on RXF 393; 25.4 µM (inactive) in the assay on SK-MEL-2. Also, the GI50 is 25.4 µM (inactive) with SNB-75, 19 µM (inactive) in the assay with SR and 21.5 µM (inactive) in the assay on UACC-257.

As to `COc1cccc(N2C(=O)/C(=C/c3ccc(N(CCC#N)CCC#N)cc3)N=C2c2cc([N+](=O)[O-])ccc2Cl)c1`, the GI50 with ACHN was 44 µM (inactive); in the assay with CAKI-1, > 100 µM (inactive); in the assay with HCC 2998 it was 60.5 µM (inactive); in the assay with HCT-15, 50.4 µM; in the assay with HL-60 it was 49.8 µM (inactive); in the assay on HT-29 it was 47 µM (inactive). Moreover, the GI50 with KM12 is 49.5 µM (inactive); in the assay with LXFL 529 it was 67.9 µM (inactive); in the assay with M14, 42.8 µM (inactive); in the assay on NCI-H460, 43.5 µM (inactive); with OVCAR-3, 35.6 µM (inactive); in the assay on OVCAR-5, 18.5 µM (inactive). Moreover, the GI50 is > 100 µM (inactive) in the assay with SK-MEL-2, 95.5 µM (inactive) in the assay on SNB-75, 32.1 µM (inactive) in the assay with SR and > 100 µM (inactive) in the assay on UACC-257.

With `COC1=CC(=O)C(Br)=CC1=O`, the GI50 in the assay on CAKI-1 was 18.4 µM (inactive); in the assay with EKVX, 25.1 µM (inactive); in the assay on HCC 2998, 36.3 µM (inactive); in the assay with HCT-15, 21.6 µM; in the assay with HL-60 it was 5.32 µM (inactive); in the assay on HT-29, 19.2 µM (inactive). Further, the GI50 in the assay with LOX IMVI was 18.2 µM (inactive); in the assay with LXFL 529, 17.2 µM (inactive); with M14, 19 µM (inactive); in the assay with NCI-H460, > 100 µM (inactive); in the assay with OVCAR-5, > 10 µM (inactive); in the assay with RXF 393, 18.2 µM (inactive). Also, the values for the GI50 in the assay with SK-MEL-2, in the assay on SNB-75 and with UACC-257 were 20.5 µM (inactive), 15.2 µM (inactive) and 17.3 µM (inactive), respectively.

Turning to `O=C(c1nc2ccc(Cl)cc2nc1O)C(O)c1ccc2c(c1)OCO2` (centres undefined), the GI50 was 65.3 µM (inactive) with ACHN; > 100 µM (inactive) in the assay with EKVX; > 100 µM (inactive) in the assay with HCC 2998; 19.7 µM (inactive) in the assay on HL-60; > 100 µM (inactive) with HT-29; 63.7 µM (inactive) with KM12. Moreover, the GI50 is 98.9 µM (inactive) in the assay on LOX IMVI; 77.6 µM (inactive) with LXFL 529; > 100 µM (inactive) in the assay with M14; > 100 µM (inactive) with NCI-H460; > 100 µM (inactive) with OVCAR-5; > 100 µM (inactive) in the assay on RXF 393. The GI50 with SK-MEL-2, with SNB-75 and in the assay with UACC-257 was > 100 µM (inactive) each time.

For the molecule `CC(C)C1=CC23CCC4C(C)(C(=O)O)CCCC4(C)C2CC1C1C(=O)N(c2ccccc2)C(=O)C13` (centres undefined), the GI50 is 28.1 µM (inactive) with ACHN; > 100 µM (inactive) in the assay on CAKI-1; 30.9 µM in the assay with HCT-15; 95.9 µM (inactive) in the assay with HL-60; 38.6 µM (inactive) with HT-29; 27.9 µM (inactive) with KM12. For the same molecule, the GI50 is 54.1 µM (inactive) in the assay with LOX IMVI; 43.9 µM (inactive) with LXFL 529; 40.5 µM (inactive) in the assay on M14; 38.9 µM (inactive) in the assay on NCI-H460; 33.7 µM (inactive) in the assay on OVCAR-3; > 100 µM (inactive) in the assay on OVCAR-5. For the same molecule, the GI50 is 27.4 µM (inactive) with RXF 393; 20.1 µM (inactive) in the assay on SK-MEL-2; 53.2 µM (inactive) in the assay with SNB-75; > 100 µM (inactive) in the assay on SR; 26.1 µM (inactive) with UACC-257.

The record behind these values is ChEMBL document CHEMBL1201862, “PubChem BioAssay data set” (2004).
